Data published in patent US20050118226A1, “Methods for treating ACAT-related diseases” (priority 2003, published 2005).
“Also recorded” adds a separate entry of the source.

What was measured:
Aβ40 = Aβ40 (Homo sapiens, UniProt P05067); assay: Turbidity assay of Aβ40 aggregation; conditions: 10 μM, absorbance at 400 nm over four days
Description: Aβ40 aggregation was monitored according to the method of Jarrett et al. (Jarrett et al., 1993). Briefly, Aβ40 (100 μg/ml) was incubated at 37° C. in TBS in a 384-well plate (60 μl/well). Well turbidity was monitored for four days by following absorbance at 400 nm. Aβ40 aggregation was promoted by the addition of “aged” (pre-incubated for 2 weeks at room temperature) Aβ42 (Aβ42/Aβ40=1/10) (Jarrett et al., 1993) or Zn/histine buffer (50 μM Zn++in 350 μM histine) (Bush et al., 1994). Absorbance of test wells was blanked on signal from samples without Aβ40. For some experiments, incubation buffers included CP-113,818 (10 μM).

adrenal cortical cells = assay: Adrenal gland histology (hematoxylin and eosin) for CP-113,818 toxicity in hAPP mice; assay type: in vivo; conditions: 7.2 mg/kg per day, two months, 7.2 mg/kg/day
Description: Animals were sacrificed the day after the last MWM training, on day 57 of treatment. Blood was obtained by cardiac puncture and total serum was used for cholesterol determination. Transcardiac perfusion with 4C PBS was performed, followed by dissection. Brains were removed, divided along the sagittal plane and then either frozen in liquid nitrogen or imersion fixed with 4% paraformaldehyde for histologic evaluation. Liver was frozen in liquid nitrogen, and adrenal glands were fixed in 4% paraformaldehyde followed by standard paraffin embedding and sectioning. Hematoxylin and eosin stained 6-8 um sections were analyzed for evidence of CP-113,818 toxicity.
To characterize the effect of CP-113,818 treatment on AD-like pathology, we used hAPP mice that express human APP751 containing the London (V717I) and Swedish (K670M/N671L) mutations under the regulatory control of the murine Thy-1 promoter (mThy1-hAPP751) (Rockenstein et al., 2001). These animals develop detectable plaques in the neocortex and hippocampus at the ages of 4 and 6 months, respectively, and show memory deficits starting at 6 months of age. […] Therefore, we included similar numbers of male and female animals in both placebo and CP-113,818 groups to detect possible gender-specific effects of the inhibitor in our mouse model. […]

Chain of Aβ40 (P05067 672-711 limits assumed): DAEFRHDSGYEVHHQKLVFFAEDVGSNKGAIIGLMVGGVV

In the case of `CCCCCCCC[C@H](SCCCCCC)C(=O)Nc1c(SC)cc(C)nc1SC` [CP-113,818], the “effect on metal- or Aβ42-mediated aggregation of Aβ40 in vitro” value (Aβ40) is reported as “failed to directly inhibit; also recorded: does not directly modulate” and the “adrenal toxicity (vacuolization in cytoplasm of adrenal cortical cells)” value (adrenal cortical cells) is reported as “no histologic evidence of toxicity; also recorded: did not show signs of vacuolization”.
